The test system of one data set is B16M-F10 cells. The data set is described as follows: Inhibition in vitro of the growth of B16M-F10 cells. In kind it is cell-based. As to the method: B16M-F10 cells were cultured in Dulbecco's modified Eagle's medium (DMEM; Gibco Labs., Grand Island, N.Y., USA), pH 7.4, supplemented with 10% fetal serum (Gibco), HEPES 10 mM, NaHCO3 40 mM, 100 U/ml of penicillin and 100 μg/ml of streptomycin (20).
The B16M-F10 melanoma, highly aggressive, is a model that is widely used for investigating metastatic spread and tissue invasion (21), and for this reason was chosen for our studies. In the first group of experiments, we studied the effect in vitro of t-PTER+QUER on the growth of B16M-F10 cells. To reproduce the conditions in vivo after i.v. administration, we incubated B16M-F10 cells in the presence of t-PTER (40 μM) and/or QUER (20 μM) for a limited period (60 minutes) (this represents a value that approximates to the average of the concentrations of PTER and QUER measured in the plasma during the first hour after i.v. administration of 20 mg/kg of each polyphenol (FIG. 2). For comparison, we also used t-RESV (12 μM; selection of this concentration was based on a similar criterion, see the data cited in ref. 14). The polyphenols were added to the incubation medium every 24 hours and, as mentioned, they were only present for 60 minutes.
Also for comparison, we incubated B16M-F10 cells in the presence of t-PTER+QUER at concentrations representing an approximate average value of the total level of each polyphenol measured in the plasma in the first hour after oral administration (11 μM of PTER and 1 μM of QUER) (see Table 1). Both polyphenols, as free forms, were constantly present in the incubation medium.
FIG. 2. Inhibition in vitro of the growth of B16M-F10 cells by brief exposure to resveratrol (RESV), pterostilbene (PTER) and/or quercetin (QUER). All the points are mean values±SD corresponding to 5-6 independent experiments. *P<0.05, **P<0.01 compared with the control values.

A further data set in a line: in vivo. The arrangement: species or system mice. The following applies: mouse. The text has this: The mice (C57BL/6J, male, 6-8 weeks) were from Charles River Spain (Barcelona). The procedures and animal care were based on institutional standards and complied with national and international laws and policies (Directive 86/609, OJ L 358. 1 of the Council of the European Community, of 12 Dec. 1987) and the “Guide for the Care and Use of Laboratory Animals” of the National Institutes of Health (NIH, USA) (NIH Publication No. 85-23, 1985). All the animals were fed according to concentrated laboratory diets (Letica, Barcelona, Spain) allowing them free access to food and submitting them to a cycle of 12 hours of light/12 hours of darkness with ambient temperature of 22° C. The experiments were begun at 10.00 a.m. to minimize the effects of diurnal variations.
For the pharmacokinetic studies and for the daily treatment, the mice were administered i.v. (via the jugular vein, where a permanent catheter had previously been fixed by surgical methods; i.v. administration was carried out slowly for 1 minute), and orally (via stomach tube), 20 mg/kg of t-PTER (dissolved in ethanol 0.5 ml/kg of animal weight) or QUER (dissolved in dimethylsulfoxide:saline, 1:0.5 0.15 ml/kg of weight). In general, the compositions based on a combination of PTER and QUER can contain, as excipients, those stated previously or any others that are pharmaceutically acceptable. The presentation of said compositions can be, non-limitatively, in the form of solids such as tablets, capsules, pellets, pills, etc. and liquid presentations such as drops, syrups, injectables, etc. Moreover, the active principles (PTER and QUER) of the composition can be in their uncombined forms or in the form of pharmaceutically acceptable salts, including esters. The t-PTER was synthesized in our laboratory following standardized reactions of Wittig and Heck (www.orgsyn.org), whereas the QUER was obtained from Sigma Chemical Co. (San Luis, Mo., USA). The ^3H-t-PTER (2.2 Ci/mmol), labeled in the ortho and para positions of the benzene rings, was prepared in our laboratory according to a method similar to that used for the deuteration of phenols (18). ^14C-QUER (50 mCi/mmol), labeled in position 4 of the carbon ring, was obtained from the NCI Radiochemical Carcinogen Repository of Chemsyn Laboratories (Kansas City, Mo., USA). The radioactivity was measured using a Varisette 2700 TR analyzer from Packard. Blood was collected by means of the catheter in 1-ml syringes that contained heparin sodium (0.05 ml of a 5% solution in […]). The plasma and the erythrocytes were separated as described previously (19).
LC-MS/MS was carried out using a Quattro Micro triple quadrupole mass spectrometer (Micromass, Manchester, UK) equipped with an LC-10Advp pump, an SLC-10Avp control system and an SIL-10Advp autoinjector from Shimadzu. The samples were analyzed by reverse-phase high-performance liquid chromatography using a Prodigy ODS column (100×2 mm) from Phenomenex (Torrance, Calif., USA), with a particle size of 3 μm. In all cases, 40 μl was injected into the column. Column temperature was maintained at 25° C. The following gradient system was used, pumped through the column at 0.2 ml/minute (min/% A/% B/% C) (A, methanol; B, 10% acetonitrile and 90% ammonium formate 10 mM pH 3.75; C, ammonium formate 10 mM pH 3.75): 0/5/5/90, 10/5/5/90, 20/5/90/5, 30/100/0/0, 40/5/5/90. The negative ion tandem mass spectra obtained by electrospray were recorded with the electrospray capillary fixed at […] and at a temperature of the source block of 120° C. Nitrogen was used as nebulizer gas and drying gas, with flows of 300 and 30 l/h, respectively. Argon at 1.5×10^−3 mbar was used as the collision gas for collision-induced dissociation. A test was carried out based on LC-MS/MS with tracking of multiple reactions using the transitions m/z 255-240 for PTER and […] for QUER, which in both cases represent favorable fragmentation routes for these deprotonated molecules. […]

[1] abbreviates: t-PTER 40 μM, QUER 20 μM, t-RESV 12 μM, added every 24 hours, present for 60 minutes.

Three molecules from patent US8227510B2, “Combine use of pterostilbene and quercetin for the production of cancer treatment medicaments” (Universitat de Valencia, priority 2004, dated 2012) can be followed below.

As to `COc1cc(/C=C/c2ccc(O)cc2)cc(OC)c1` [PTER, pterostilbene], in the data set on B16M-F10 cells (setting [1]), the “inhibition of the growth of B16M-F10” value was 40%. Moreover, the “PTER measured in plasma or blood in the trans form” value in the data set “in vivo” (male, C57BL/6J) is “At least 99%”. In the data set “in vivo” (male, C57BL/6J, iv, 20 mg/kg), the half-life is ~77.9 min and the “time in which plasma concentration decreases to ~1 μM” value amounted to 480 min. The “levels in whole blood compared with plasma” value in “in vivo” is listed as “not significantly different”.

On to `O=c1c(O)c(-c2ccc(O)c(O)c2)oc2cc(O)cc(O)c12` [QUER, quercetin], for which the “effect on growth of B16M-F10 cells at concentrations found after oral administration” value in the data set on B16M-F10 cells (t-PTER 11 μM and/or QUER 1 μM, constantly present in the medium) is “did not have a significant effect”. The molecule also gave an inhibition at 20 µM with B16M-F10 cells (setting [1]) of 19%. Also, in the data set “in vivo” (male, C57BL/6J, iv, 20 mg/kg), the half-life is ~20.1 min and the “time in which plasma concentration decreases to ~1 μM” value is 120 min. Further, the “levels in whole blood compared with plasma” value in “in vivo” is on record as “not significantly different”.

For the molecule `Oc1ccc(C=Cc2cc(O)cc(O)c2)cc1` [RESV, resveratrol, reference compound], in the data set on B16M-F10 cells (setting [1]), the “inhibition of the growth of B16M-F10” value is “did not have a significant effect”. For the same molecule, the “effect of t-RESV on the percentage inhibition of growth promoted by t-PTER+QUER” value in the data set on B16M-F10 cells (t-RESV 12 μM added to t-PTER 40 μM + QUER 20 μM) was “did not significantly affect”. Further, in “in vivo”, the half-life is ~10.2 min.
